Laboratory results published in US12660819B2, “Herbicidal derivatives” (SYNGENTA CROP PROTECTION AG, priority 2020, dated 2026).

Columns and labels:
Format in all cases: in vivo
[1] = tested on: Amaranthus retoflexus (AMARE); assay: Post-emergence Test (glasshouse, percentage damage to the plant); conditions: post-emergence spray, 1000 g/ha unless otherwise stated, evaluated after 13 days
How it was run: (§1)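 Rate 1000 g/ha unless stated otherwise. Vehicle: acetone/water 50:50 with 0.5% Tween 20, diluted into aqueous spray. Timing: spray after sowing, read 13 days later. Score: 5=81-100%, 4=61-80%, 3=41-60%, 2=21-40%, 1=0-20% damage.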

[2] = tested on: Echinochloa crus-galli (ECHCG); assay: as above; conditions: post-emergence spray, 1000 g/ha unless otherwise stated, evaluated after 13 days
How it was run: as §1

[3] = tested on: Ipomoea hederacea (IPOHE); assay: as above; conditions: post-emergence spray, 1000 g/ha unless otherwise stated, evaluated after 13 days
How it was run: (§2)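 Scored 13 days after spraying as percentage plant damage in five bands (5=81–100%, 4=61–80%, 3=41–60%, 2=21–40%, 1=0–20%). Spray at 1000 g/ha unless stated, in acetone/water 50:50 plus 0.5% Tween 20, onto sown glasshouse pots (24/16 °C, 14 h light, 65% humidity).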

Lolium perenne (LOLPE) [4] = assay: as above; conditions: post-emergence spray, 1000 g/ha unless otherwise stated, evaluated after 13 days
How it was run: as §1

Setaria faberi (SETFA) [5] = assay: as above; conditions: post-emergence spray, 1000 g/ha unless otherwise stated, evaluated after 13 days
How it was run: as §2

Solanum nigrum (SOLNI) [6] = assay: as above; conditions: post-emergence spray, 1000 g/ha unless otherwise stated, evaluated after 13 days
How it was run: as §1

[7] = tested on: Amaranthus retoflexus (AMARE); assay: Pre-emergence Test (glasshouse, percentage damage to the plant); conditions: 1000 g/ha unless otherwise stated, five-point scale
Solanum nigrum (SOLNI) [8] = assay: as above; conditions: 1000 g/ha unless otherwise stated, five-point scale
Setaria faberi (SETFA) [9] = assay: as above; conditions: 1000 g/ha unless otherwise stated, five-point scale
Lolium perenne (LOLPE) [10] = assay: as above; conditions: 1000 g/ha unless otherwise stated, five-point scale
[11] = tested on: Echinochloa crus-galli (ECHCG); assay: as above; conditions: 1000 g/ha unless otherwise stated, five-point scale
[12] = tested on: Ipomoea hederacea (IPOHE); assay: as above; conditions: 1000 g/ha unless otherwise stated, five-point scale

| Compound | Post-emergence Test AMARE, percentage damage to the plant (five-point scale) [1] | Post-emergence Test ECHCG, percentage damage to the plant (five-point scale) [2] | Post-emergence Test IPOHE, percentage damage to the plant (five-point scale) [3] | Post-emergence Test LOLPE, percentage damage to the plant (five-point scale) (Lolium perenne (LOLPE) [4]) | Post-emergence Test SETFA, percentage damage to the plant (five-point scale) (Setaria faberi (SETFA) [5]) | Post-emergence Test SOLNI, percentage damage to the plant (five-point scale) (Solanum nigrum (SOLNI) [6]) | percentage damage to the plant, AMARE [7] | percentage damage to the plant, SOLNI (Solanum nigrum (SOLNI) [8]) | percentage damage to the plant, SETFA (Setaria faberi (SETFA) [9]) | percentage damage to the plant, LOLPE (Lolium perenne (LOLPE) [10]) | percentage damage to the plant, ECHCG [11] | percentage damage to the plant, IPOHE [12] |
| --- | --- | --- | --- | --- | --- | --- | --- | --- | --- | --- | --- | --- |
| CCn1c(C)c(-c2ccc(Cl)cc2)c(=O)c(C(=O)O)c1-c1ccc(Cl)c(Cl)c1 [Compound 10, 5-(4-chlorophenyl)-2-(3,4-dichlorophenyl)-1-ethyl-6-methyl-4-oxo-pyridine-3-carboxylic acid] | 5 (5=81-100%) | 4 (4=61-80%) | 4 (4=61-80%) | 3 (3=41-60%) | 5 (5=81-100%) | 5 (5=81-100%) | 5 (5=81-100%) | 4 (4=61-80%) | 4 (4=61-80%) | 1 (1=0-20%) | 3 (3=41-60%) | 2 (2=21-40%) |
| CCn1c(C)c(-c2ccccc2F)c(=O)c(C(=O)O)c1-c1ccc(Cl)c(Cl)c1 [Compound 14, 2-(3,4-dichlorophenyl)-1-ethyl-5-(2-fluorophenyl)-6-methyl-4-oxo-pyridine-3-carboxylic acid] | 4 (4=61-80%) | 4 (4=61-80%) | 4 (4=61-80%) | 4 (4=61-80%) | 4 (4=61-80%) | 3 (3=41-60%) | 2 (2=21-40%) | 2 (2=21-40%) | 5 (5=81-100%) | 1 (1=0-20%) | 4 (4=61-80%) | 3 (3=41-60%) |
| CCn1c(C)c(-c2ccccc2)c(=O)c(C(=O)O)c1-c1ccc(Cl)c(Cl)c1 [Compound 24, 2-(3,4-dichlorophenyl)-1-ethyl-6-methyl-4-oxo-5-phenyl-pyridine-3-carboxylic acid] | 4 (4=61-80%) | 3 (3=41-60%) | 4 (4=61-80%) | 4 (4=61-80%) | 4 (4=61-80%) | 5 (5=81-100%) | 1 (1=0-20%) | 5 (5=81-100%) | 1 (1=0-20%) | 2 (2=21-40%) | 2 (2=21-40%) | 4 (4=61-80%) |
| CCn1c(C)c(-c2ccc(Cl)nc2)c(=O)c(C(=O)O)c1-c1ccc(Cl)c(Cl)c1 [Compound 12, 5-(6-chloro-3-pyridyl)-2-(3,4-dichlorophenyl)-1-ethyl-6-methyl-4-oxo-pyridine-3-carboxylic acid] | 5 (5=81-100%) | 4 (4=61-80%) | 4 (4=61-80%) | 3 (3=41-60%) | 5 (5=81-100%) |  | 5 (5=81-100%) |  | 5 (5=81-100%) | 1 (1=0-20%) | 4 (4=61-80%) | 1 (1=0-20%) |
| CCn1c(C)c(-c2ccc(F)c(Cl)c2)c(=O)c(C(=O)O)c1-c1ccc(Cl)c(Cl)c1 [Compound 22, 5-(3-chloro-4-fluoro-phenyl)-2-(3,4-dichlorophenyl)-1-ethyl-6-methyl-4-oxo-pyridine-3-carboxylic acid] | 5 (5=81-100%) | 2 (2=21-40%) | 3 (3=41-60%) | 2 (2=21-40%) | 4 (4=61-80%) | 4 (4=61-80%) | 2 (2=21-40%) | 2 (2=21-40%) | 3 (3=41-60%) | 2 (2=21-40%) | 1 (1=0-20%) | 1 (1=0-20%) |
| CCn1c(C)c(-c2ccc(F)cc2F)c(=O)c(C(=O)O)c1-c1ccc(-c2ccc(F)cc2F)c(Cl)c1 [Compound 4, 2-[3-chloro-4-(2,4-difluorophenyl)phenyl]-5-(2,4-difluorophenyl)-1-ethyl-6-methyl-4-oxo-pyridine-3-carboxylic acid] | 3 (3=41-60%) | 1 (1=0-20%) | 2 (2=21-40%) | 1 (1=0-20%) | 2 (2=21-40%) |  | 1 (1=0-20%) |  | 1 (1=0-20%) | 1 (1=0-20%) | 1 (1=0-20%) | 1 (1=0-20%) |
| CCn1c(C)c(-c2ccc(Cl)cc2)c(=O)c(C(=O)NN(C)C)c1-c1ccc(Cl)c(Cl)c1 [Compound 2, 5-(4-chlorophenyl)-2-(3,4-dichlorophenyl)-1-ethyl-N′,N′,6-trimethyl-4-oxo-pyridine-3-carbohydrazide] | 3 (3=41-60%) | 2 (2=21-40%) | 2 (2=21-40%) | 1 (1=0-20%) | 4 (4=61-80%) |  | 3 (3=41-60%) |  | 1 (1=0-20%) | 1 (1=0-20%) | 1 (1=0-20%) |  |
| CCn1c(COC)c(-c2ccc(Cl)cc2)c(=O)c(C(=O)O)c1-c1ccc(Cl)c(Cl)c1 [Compound 7, 5-(4-chlorophenyl)-2-(3,4-dichlorophenyl)-1-ethyl-6-(methoxymethyl)-4-oxo-pyridine-3-carboxylic acid] | 5 (5=81-100%) | 4 (4=61-80%) | 2 (2=21-40%) | 1 (1=0-20%) | 4 (4=61-80%) | 2 (2=21-40%) |  | 1 (1=0-20%) | 2 (2=21-40%) | 1 (1=0-20%) | 2 (2=21-40%) | 1 (1=0-20%) |
| CCn1c(C)c(-c2cccnc2)c(=O)c(C(=O)O)c1-c1ccc(Cl)c(Cl)c1 [Compound 21, 2-(3,4-dichlorophenyl)-1-ethyl-6-methyl-4-oxo-5-pyridin-1-ium-3-yl-pyridine-3-carboxylic acid;2,2,2-trifluoroacetate] | 3 (3=41-60%) | 3 (3=41-60%) | 3 (3=41-60%) |  |  | 4 (4=61-80%) |  |  | 3 (3=41-60%) |  | 2 (2=21-40%) |  |
| CCn1c(C)c(-c2ccc(F)cc2F)c(=O)c(C(=O)O)c1-c1ccc(Cl)c(Cl)c1 [Compound 3, 2-(3,4-dichlorophenyl)-5-(2,4-difluorophenyl)-1-ethyl-6-methyl-4-oxo-pyridine-3-carboxylic acid] | 5 (5=81-100%) | 5 (5=81-100%) | 4 (4=61-80%) | 4 (4=61-80%) | 5 (5=81-100%) |  | 5 (5=81-100%) |  | 5 (5=81-100%) | 3 (3=41-60%) | 4 (4=61-80%) | 4 (4=61-80%) |
